Key:
[1] = Stability in human intestinal S9 fraction (HIS9); type: in vitro ADME; details: human intestinal S9 0.4 mg protein/mL, 5 μM test compound, 37° C.
Description: (§1) Stability in Human Intestinal S9 Fraction (HIS9) and in Human Liver S9 Fraction (HLS9),
(§2) Stock solutions of each test compound (10 mM) were prepared in DMSO and stored at −20° C. Prior to the start of the experiment, the test compounds were diluted to 500 μM in 50% acetonitrile in water. The reaction mixture was prepared in a total volume of 250 μL containing 5 mM MgC2, 1 mM NADPH and 5 μM test compound in 50 mM potassium phosphate buffer (pH 7.4). The reaction was initiated by addition of human liver or intestinal S9 fraction with a final concentration of 0.4 mg protein/mL (Xeno Tech). The reaction mixture was incubated on an orbital shaker at 37° C. At the desired time points (0, 10, 30 and 60 minutes) aliquots of 50 μL were taken and the reaction was stopped by mixing with 150 μL acetonitrile containing internal standard. Standard solutions of each test compound were prepared from the 500 μM solution by diluting the solution to a final concentration of 5 μM in boiled human S9 (0.4 mg protein/mL), 5 mM MgCl2 and 50 mM potassium phosphate buffer (pH 7.4). The standards and samples were kept on ice for 30 min then centrifuged at 3 000 g for 20 minutes at 10° C., there after 10 μL of supernatant was mixed with 200 μL 50% acetonitrile in water. 0.5 μM of each test compound in 50% acetonitrile in water was injected into the LC/MS-MS to determine the daughter ion, declustring potential (DP), collision energy (CE) and collision cell exit potential (CXP) in order to develop a LC/MS-MS method. The compounds were separated using a C18 column with a QTRAP5500 system. The mobile phase consisted of solvent A (98% water, 2% acetonitrile, 0.1% acetic acid or 10 mM ammonium acetate) and solvent B (80% acetonitrile, 20% water, 0.1% acetic acid or 10 mM ammonium acetate). Elution of the compounds was performed by using a gradient of solvent B from 0% to 100%. 5 μL of standard points and samples were injected for analysis with QTRAP5500.
(§3) The amount of parent compound was determined on the basis of the peak area for each time point compared to standard which was set to 5 μM. Intrinsic clearance (CLint) and half-life (t1/2) were determined from the disappearance curves of the test compound using Excel software.

[2] = Cell cytotoxicity assay, HEPG2; type: cell-based; details: human; HepG2 cells, 5 days at 37° C., XTT dye
Description: (§4) Cells were seeded 24 hours prior to compound addition. Each test compound (serially diluted from 100 μM) was added to Huh7 (1.5×10^4 cells/well) or HepG2 (1.5×10^4 cells/well), and allowed to incubate for 5 days at 37° C. A medium only control was used to determine the minimum absorbance value and an untreated cell value. At the end of the growth period, XTT dye from Polysciences Europe GmbH was added to each well. The absorbance at 450 nm with a reference wavelength of 600 nm was read with a Sunrise (Tecan) using the medium only control wells as blanks. The 50% inhibition value (CC50) was determined by comparing the degree of inhibition (compared to cell control) plotted against compound concentration. Results from the dilution series were fitted to a sigmoidal dose-response curve.
(§5) Compounds of the invention were evaluated in these assays to assess the stability in human intestinal S9 fraction (HIS9) and human liver S9 fraction (HLS9), and for Cell Cytotoxicity in HUH7, HEP3B and HEPG2 cells.

[3] = Stability in human liver S9 fraction (HLS9); type: in vitro ADME; details: liver S9 fraction, pH 7.4; human liver S9 0.4 mg protein/mL, 5 μM test compound, 37° C.
Description: as §1, §2, §3

[4] = Cell cytotoxicity assay, HUH7; type: cell-based; details: human; Huh7 cells, 5 days at 37° C., XTT dye
Description: as §4, §5

[5] = Cell cytotoxicity assay, HEP3B; type: cell-based; details: human, HEP3B cells
Description: as §4, §5

HBV in Hep G2.2.15 cells = details: cited from earlier work
HIV = details: relative to 3TC; cited from earlier work

Compound | CLint Intestinal S9 [1] [µL/min/mg] | CC50 at 5 days [2] [nM] | microsomal CLint at 5 μM [3] [µL/min/mg] | CC50 at 5 days [4] [nM] | CC50 at 5 days [5] [nM] | microsomal CLint at 5 μM ([1]; intestinal S9 fraction, pH 7.4) [µL/min/mg] | effectiveness against HBV compared with parent nucleoside 3TC (HBV in Hep G2.2.15 cells) | fold less active against HIV than parent nucleoside 3TC (HIV) [fold]
COC(=O)[C@H](C)NP(=O)(OC[C@H]1OC[C@@H](n2ccc(N)nc2=O)O1)Oc1ccc(Br)cc1 (single isomer, unassigned) [27 dia-2] | 6 | 223 | 57 | 1020 | 348 |  |  | 
CCC[C@H](C)OC(=O)[C@H](C)NP(=O)(OC[C@H]1OC[C@@H](n2cc(F)c(N)nc2=O)O1)Oc1cccc(C2CC2)c1 (single isomer, unassigned) [29 dia-2] |  |  | 36 | 495 | 75 | 18 |  | 
COC(=O)[C@H](C)NP(=O)(OC[C@H]1OC[C@@H](n2ccc(N)nc2=O)O1)Oc1ccc(C2CC2)cc1 (single isomer, unassigned) [34 dia-2] | 6 | 236 | 64 | 524 | 210 |  |  | 
COC(=O)C(C)NP(=O)(OC[C@@H]1O[C@H](n2ccc(N)nc2=O)CS1)Oc1ccccc1 (stereo partly shown) [CF 1109] |  |  |  |  |  |  | virtually equally effective | ~250
Nc1ccn([C@@H]2CO[C@H](CO)O2)c(=O)n1 [Troxacitabine, 4-amino-1-((2S,4S)-2-(hydroxymethyl)-1,3-dioxolan-4-yl)pyrimidin-2(1H)-one, reference compound] |  | 218 |  | 646 | 279 |  |  | 

— patent publication US11447511B2, “Dioxolane analogues of uridine for the treatment of cancer” (MEDIVIR AB, priority 2014, dated 2022)
